Measured values published in ChEMBL document CHEMBL1201862, “PubChem BioAssay data set” (2004).
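Cultured in 96-well plates, cells were exposed to test compound for 48 hours across five concentrations. Here, GI50 denotes the concentration required for 50% inhibition of growth.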 Activity calls are given as the source filed them. No stated cut-off is given here; in the data, active = GI50 up to about 1.1 µM and inactive = higher.

Key:
Assay in all cases: NCI anticancer screen, dose series, 48 h
786-0 = system: 786-0
A498 = system: A498
A549 = system: A549
ACHN = system: ACHN
BT-549 = system: BT-549
CAKI-1 = system: CAKI-1
CCRF-CEM = system: CCRF-CEM
COLO 205 = system: COLO 205
DU-145 = system: DU-145
EKVX = system: EKVX
HCC 2998 = system: HCC 2998
HCT-116 = system: HCT-116
HCT-15 = system: HCT-15
HL-60 = system: HL-60
HOP-92 = system: HOP-92
HT-29 = system: HT-29
Hs-578T = system: Hs-578T
IGROV-1 = system: IGROV-1
K562 = system: K562
KM12 = system: KM12
LOX IMVI = system: LOX IMVI
M14 = system: M14
MCF7 = system: MCF7
MDA-MB-231 = system: MDA-MB-231
MDA-MB-435 = system: MDA-MB-435
MDA-N = system: MDA-N
MOLT-4 = system: MOLT-4
Malme-3M = system: Malme-3M
NCI-H226 = system: NCI-H226
NCI-H23 = system: NCI-H23
NCI-H460 = system: NCI-H460
NCI/ADR-RES = system: NCI/ADR-RES
OVCAR-3 = system: OVCAR-3
OVCAR-4 = system: OVCAR-4
OVCAR-5 = system: OVCAR-5
OVCAR-8 = system: OVCAR-8
PC-3 = system: PC-3
RXF 393 = system: RXF 393
SF-268 = system: SF-268
SF-295 = system: SF-295
SF-539 = system: SF-539
SK-MEL-28 = system: SK-MEL-28
SK-MEL-2 = system: SK-MEL-2
SK-MEL-5 = system: SK-MEL-5
SK-OV-3 = system: SK-OV-3
SN12C = system: SN12C
SNB-19 = system: SNB-19
SNB-75 = system: SNB-75
SW-620 = system: SW-620
T47D = system: T47D
TK-10 = system: TK-10
U-251 = system: U-251
UACC-257 = system: UACC-257
UACC-62 = system: UACC-62
UO-31 = system: UO-31
HOP-62 = system: HOP-62
NCI-H522 = system: NCI-H522
RPMI-8226 = system: RPMI-8226

## CC12CC(C#N)(C#N)C(C#N)(CO1)C(=N)O2 (configuration not stated)
786-0
  GI50: > 100 µM (inactive)
A498
  GI50: > 100 µM (inactive)
A549
  GI50: > 100 µM (inactive)
ACHN
  GI50: > 100 µM (inactive)
BT-549
  GI50: > 100 µM (inactive)
CAKI-1
  GI50: 31.8 µM (inactive)
CCRF-CEM
  GI50: 26.9 µM (inactive)
COLO 205
  GI50: 37.8 µM (inactive)
DU-145
  GI50: > 100 µM (inactive)
EKVX
  GI50: > 100 µM (inactive)
HCC 2998
  GI50: > 100 µM (inactive)
HCT-116
  GI50: 64.3 µM (inactive)
HCT-15
  GI50: 40.6 µM
HL-60
  GI50: 44.2 µM (inactive)
HOP-92
  GI50: 52.7 µM (inactive)
HT-29
  GI50: 69.2 µM (inactive)
Hs-578T
  GI50: 27.7 µM (inactive)
IGROV-1
  GI50: > 100 µM (inactive)
K562
  GI50: 75.7 µM (inactive)
KM12
  GI50: > 100 µM (inactive)
LOX IMVI
  GI50: 49.3 µM (inactive)
M14
  GI50: > 100 µM (inactive)
MCF7
  GI50: > 100 µM (inactive)
MDA-MB-231
  GI50: > 100 µM (inactive)
MDA-MB-435
  GI50: > 100 µM (inactive)
MDA-N
  GI50: > 100 µM (inactive)
MOLT-4
  GI50: 54.3 µM (inactive)
Malme-3M
  GI50: 24.2 µM (inactive)
NCI-H226
  GI50: > 100 µM (inactive)
NCI-H23
  GI50: > 100 µM (inactive)
NCI-H460
  GI50: 63.7 µM (inactive)
NCI/ADR-RES
  GI50: 71.1 µM (inactive)
OVCAR-3
  GI50: > 100 µM (inactive)
OVCAR-4
  GI50: > 100 µM (inactive)
OVCAR-5
  GI50: > 100 µM (inactive)
OVCAR-8
  GI50: > 100 µM (inactive)
PC-3
  GI50: > 100 µM (inactive)
RXF 393
  GI50: 59.7 µM (inactive)
SF-268
  GI50: > 100 µM (inactive)
SF-295
  GI50: > 100 µM (inactive)
SF-539
  GI50: > 100 µM (inactive)
SK-MEL-28
  GI50: > 100 µM (inactive)
SK-MEL-2
  GI50: > 100 µM (inactive)
SK-MEL-5
  GI50: > 100 µM (inactive)
SK-OV-3
  GI50: > 100 µM (inactive)
SN12C
  GI50: > 100 µM (inactive)
SNB-19
  GI50: > 100 µM (inactive)
SNB-75
  GI50: > 100 µM (inactive)
SW-620
  GI50: 53.6 µM (inactive)
T47D
  GI50: > 100 µM (inactive)
TK-10
  GI50: > 100 µM (inactive)
U-251
  GI50: > 100 µM (inactive)
UACC-257
  GI50: > 100 µM (inactive)
UACC-62
  GI50: 24.9 µM (inactive)
UO-31
  GI50: > 100 µM (inactive)

## O=C(O)c1ccccc1NC(=S)c1ccccc1
786-0
  GI50: 47.4 µM (inactive)
A498
  GI50: 61.9 µM (inactive)
A549
  GI50: 51.3 µM (inactive)
ACHN
  GI50: 24.7 µM (inactive)
BT-549
  GI50: 33 µM (inactive)
CAKI-1
  GI50: 43 µM (inactive)
CCRF-CEM
  GI50: 45.5 µM (inactive)
COLO 205
  GI50: 39.1 µM (inactive)
DU-145
  GI50: > 100 µM (inactive)
EKVX
  GI50: 37.8 µM (inactive)
HCC 2998
  GI50: < 0.01 µM (active)
HCT-116
  GI50: 48.3 µM (inactive)
HCT-15
  GI50: 30.3 µM
HL-60
  GI50: 34 µM (inactive)
HOP-62
  GI50: 50.4 µM (inactive)
HOP-92
  GI50: 11.8 µM (inactive)
HT-29
  GI50: 37.8 µM (inactive)
Hs-578T
  GI50: 53.7 µM (inactive)
IGROV-1
  GI50: 25.1 µM (inactive)
K562
  GI50: 39.2 µM (inactive)
KM12
  GI50: 50.2 µM (inactive)
LOX IMVI
  GI50: 30.5 µM (inactive)
M14
  GI50: 70.5 µM (inactive)
MCF7
  GI50: 31.3 µM (inactive)
MDA-MB-231
  GI50: 60.5 µM (inactive)
MDA-MB-435
  GI50: 52.8 µM (inactive)
MDA-N
  GI50: 38.7 µM (inactive)
MOLT-4
  GI50: 67.5 µM (inactive)
Malme-3M
  GI50: 19.1 µM (inactive)
NCI-H23
  GI50: 80.9 µM (inactive)
NCI-H460
  GI50: 53.2 µM (inactive)
NCI-H522
  GI50: 13.5 µM (inactive)
NCI/ADR-RES
  GI50: 51.1 µM (inactive)
OVCAR-3
  GI50: 34.4 µM (inactive)
OVCAR-4
  GI50: 0.0592 µM (active)
OVCAR-5
  GI50: > 100 µM (inactive)
OVCAR-8
  GI50: 33.9 µM (inactive)
PC-3
  GI50: 34.5 µM (inactive)
RPMI-8226
  GI50: 28.2 µM (inactive)
RXF 393
  GI50: 51.9 µM (inactive)
SF-268
  GI50: 64 µM (inactive)
SF-295
  GI50: 35.2 µM (inactive)
SF-539
  GI50: 44.4 µM (inactive)
SK-MEL-5
  GI50: 38.5 µM (inactive)
SK-OV-3
  GI50: 76.4 µM (inactive)
SN12C
  GI50: 66.4 µM (inactive)
SNB-19
  GI50: 48.5 µM (inactive)
SW-620
  GI50: 46.5 µM (inactive)
T47D
  GI50: 34.2 µM (inactive)
TK-10
  GI50: 35.8 µM (inactive)
U-251
  GI50: 47.8 µM (inactive)
UACC-257
  GI50: 29.7 µM (inactive)
UACC-62
  GI50: 30.3 µM (inactive)
UO-31
  GI50: 51.8 µM (inactive)

## CN(C)CCNc1ncnc2nc(-c3ccccc3)c(-c3ccccc3)nc12
786-0
  GI50: > 100 µM (inactive)
A498
  GI50: > 100 µM (inactive)
A549
  GI50: > 100 µM (inactive)
BT-549
  GI50: > 100 µM (inactive)
CAKI-1
  GI50: > 100 µM (inactive)
CCRF-CEM
  GI50: > 100 µM (inactive)
COLO 205
  GI50: > 100 µM (inactive)
DU-145
  GI50: > 100 µM (inactive)
EKVX
  GI50: > 100 µM (inactive)
HCT-116
  GI50: > 100 µM (inactive)
HL-60
  GI50: > 100 µM (inactive)
HOP-62
  GI50: > 100 µM (inactive)
HT-29
  GI50: > 100 µM (inactive)
Hs-578T
  GI50: > 100 µM (inactive)
IGROV-1
  GI50: > 100 µM (inactive)
KM12
  GI50: > 100 µM (inactive)
LOX IMVI
  GI50: > 100 µM (inactive)
M14
  GI50: > 100 µM (inactive)
MCF7
  GI50: 57.5 µM (inactive)
MDA-MB-231
  GI50: > 100 µM (inactive)
MDA-MB-435
  GI50: > 100 µM (inactive)
MDA-N
  GI50: > 100 µM (inactive)
MOLT-4
  GI50: 0.094 µM (active)
Malme-3M
  GI50: > 100 µM (inactive)
NCI-H226
  GI50: > 100 µM (inactive)
NCI-H23
  GI50: > 100 µM (inactive)
NCI-H522
  GI50: > 100 µM (inactive)
NCI/ADR-RES
  GI50: > 100 µM (inactive)
OVCAR-3
  GI50: > 100 µM (inactive)
OVCAR-5
  GI50: > 100 µM (inactive)
OVCAR-8
  GI50: > 100 µM (inactive)
PC-3
  GI50: > 100 µM (inactive)
RXF 393
  GI50: > 100 µM (inactive)
SF-268
  GI50: > 100 µM (inactive)
SF-539
  GI50: > 100 µM (inactive)
SK-MEL-28
  GI50: > 100 µM (inactive)
SK-MEL-2
  GI50: > 100 µM (inactive)
SK-MEL-5
  GI50: > 100 µM (inactive)
SK-OV-3
  GI50: > 100 µM (inactive)
SN12C
  GI50: > 100 µM (inactive)
SNB-75
  GI50: 87.7 µM (inactive)
SW-620
  GI50: > 100 µM (inactive)
T47D
  GI50: > 100 µM (inactive)
TK-10
  GI50: > 100 µM (inactive)
U-251
  GI50: > 100 µM (inactive)
UACC-257
  GI50: > 100 µM (inactive)
UACC-62
  GI50: > 100 µM (inactive)
UO-31
  GI50: > 100 µM (inactive)
